Test results reported in the supplement of paper PMC10307832.

Tests used:
Assay in all cases: relative viability (nuclei count vs DMSO), 5 days (fraction); higher = more cells survive
AZD1208 + Linsitinib = compound: N[C@@H]1CCCN(c2c(/C=C3\SC(=O)NC3=O)cccc2-c2ccccc2)C1 [AZD1208] + C[C@]1(O)C[C@@H](c2nc(-c3ccc4ccc(-c5ccccc5)nc4c3)c3c(N)nccn32)C1 [Linsitinib] (partner 1 µM)
How it was run: (§1)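 Lung cancer cell lines in 1536-well plates got either a single drug or a fixed anchor-drug dose together with five library-drug doses (not always all listed) in √10 steps, by pin tool, on the day after seeding. Nuclei were counted after 5 days, and relative viability is the treated-to-vehicle ratio of nuclei counts. Values are medians of duplicate plates.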

XMD14-99 + Palbociclib = compound: CN1CCN(CC1)C2=CC(=C(C=C2)NC3=NC(=C(S3)C(=O)C4=C(C=CC=C4Cl)Cl)N)OC [XMD14-99] + CC(=O)c1c(C)c2cnc(Nc3ccc(N4CCNCC4)cn3)nc2n(C2CCCC2)c1=O [Palbociclib] (partner 0.5 µM)
How it was run: as §1

AZD1208 + Crizotinib = compound: N[C@@H]1CCCN(c2c(/C=C3\SC(=O)NC3=O)cccc2-c2ccccc2)C1 [AZD1208] + C[C@@H](Oc1cc(-c2cnn(C3CCNCC3)c2)cnc1N)c1c(Cl)ccc(F)c1Cl [Crizotinib] (partner 1 µM)
How it was run: as §1

XMD14-99 + Navitoclax = compound: CN1CCN(CC1)C2=CC(=C(C=C2)NC3=NC(=C(S3)C(=O)C4=C(C=CC=C4Cl)Cl)N)OC [XMD14-99] + CC1(C)CCC(c2ccc(Cl)cc2)=C(CN2CCN(c3ccc(C(=O)NS(=O)(=O)c4ccc(N[C@H](CCN5CCOCC5)CSc5ccccc5)c(S(=O)(=O)C(F)(F)F)c4)cc3)CC2)C1 [Navitoclax] (partner 0.5 µM)
How it was run: as §1

| Cell Line | relative viability (AZD1208 + Linsitinib; first compound 0.08 µM) | relative viability (AZD1208 + Linsitinib; first compound 0.253 µM) | relative viability (AZD1208 + Linsitinib; first compound 0.8 µM) | relative viability (AZD1208 + Linsitinib; first compound 2.53 µM) | relative viability (AZD1208 + Linsitinib; first compound 8 µM) | relative viability (XMD14-99 + Palbociclib; first compound 0.08 µM) | relative viability (XMD14-99 + Palbociclib; first compound 0.8 µM) | relative viability (XMD14-99 + Palbociclib; first compound 2.53 µM) | relative viability (XMD14-99 + Palbociclib; first compound 8 µM) | relative viability (AZD1208 + Crizotinib; first compound 0.08 µM) | relative viability (AZD1208 + Crizotinib; first compound 0.253 µM) | relative viability (AZD1208 + Crizotinib; first compound 0.8 µM) | relative viability (AZD1208 + Crizotinib; first compound 2.53 µM) | relative viability (AZD1208 + Crizotinib; first compound 8 µM) | relative viability (XMD14-99 + Navitoclax; first compound 0.08 µM) | relative viability (XMD14-99 + Navitoclax; first compound 0.8 µM) | relative viability (XMD14-99 + Navitoclax; first compound 2.53 µM) | relative viability (XMD14-99 + Navitoclax; first compound 8 µM) |
| --- | --- | --- | --- | --- | --- | --- | --- | --- | --- | --- | --- | --- | --- | --- | --- | --- | --- | --- |
| LU99A | 0.504 | 0.5 | 0.51 | 0.397 | 0.432 | 0.382 | 0.415 | 0.396 | 0.328 | 0.517 | 0.541 | 0.519 | 0.488 | 0.446 | 0.766 | 0.776 | 0.786 | 0.725 |
| LXF-289 | 0.982 | 1.01 | 0.966 | 1.01 | 1.01 | 0.625 | 0.571 | 0.55 | 0.575 | 0.853 | 0.894 | 0.8 | 0.814 | 0.928 | 0.903 | 0.913 | 0.884 | 0.836 |
| NCI-H23 | 0.453 | 0.539 | 0.462 | 0.434 | 0.461 | 0.519 | 0.541 | 0.529 | 0.454 | 0.377 | 0.467 | 0.372 | 0.426 | 0.34 | 0.782 | 0.874 | 0.744 | 0.748 |
| NCI-H322M | 0.954 | 0.98 | 0.828 | 0.829 | 0.84 | 0.449 | 0.523 | 0.472 | 0.514 | 1.14 | 0.972 | 0.975 | 0.607 | 0.974 | 1.15 | 1.27 | 1.33 | 1.08 |
| NCI-H441 | 0.477 | 0.593 | 0.381 | 0.497 | 0.457 | 0.223 | 0.19 | 0.225 | 0.22 | 0.73 | 0.674 | 0.667 | 0.526 | 0.42 | 0.575 | 0.556 | 0.724 | 0.569 |
| NCI-H460 | 0.724 | 0.843 | 0.817 | 0.711 | 0.539 | 0.156 | 0.21 | 0.164 | 0.12 | 0.912 | 1.17 | 0.854 | 0.709 | 0.871 | 1.06 | 1.02 | 1.03 | 0.767 |
| NCI-H520 | 0.904 | 1.07 | 0.808 | 0.819 | 0.83 | 0.174 | 0.186 | 0.239 | 0.222 | 0.77 | 0.833 | 0.711 | 0.582 | 0.439 | 0.992 | 1.1 | 1.12 | 1.01 |
| NCI-H647 | 1.22 | 1.1 | 1.06 | 1.03 | 1.06 | 0.408 | 0.459 | 0.505 | 0.364 | 0.953 | 1.09 | 0.894 | 0.906 | 0.757 | 1.08 | 1.19 | 1.16 | 0.974 |
| NCI-H727 | 0.29 | 0.219 | 0.264 | 0.259 | 0.225 | 0.691 | 0.652 | 0.609 | 0.544 | 0.795 | 0.863 | 0.819 | 0.789 | 0.703 | 0.399 | 0.349 | 0.339 | 0.219 |
| NCI-H838 | 0.992 | 1.09 | 0.815 | 1.02 | 0.817 | 0.221 | 0.217 | 0.226 | 0.213 | 0.967 | 0.806 | 0.892 | 0.843 | 0.758 | 1.15 | 1.11 | 1.1 | 0.747 |
| NCI-H1355 | 0.846 | 0.921 | 0.718 | 0.737 | 0.695 | 0.393 | 0.419 | 0.383 | 0.331 | 0.974 | 1.09 | 0.997 | 1.06 | 0.916 | 0.87 | 0.863 | 0.782 | 0.778 |
| NCI-H1437 | 1.03 | 1.09 | 0.887 | 0.832 | 0.866 | 0.307 | 0.311 | 0.252 | 0.221 | 0.979 | 0.961 | 1.03 | 0.998 | 1.04 | 1.06 | 1 | 0.913 | 0.629 |
| NCI-H1651 | 0.912 | 0.619 | 0.758 | 0.852 | 0.83 | 0.535 | 0.535 | 0.535 | 0.522 | 0.899 | 0.918 | 0.83 | 0.835 | 0.81 | 0.982 | 1.04 | 0.933 | 0.943 |
| NCI-H1666 | 0.831 | 0.677 | 0.748 | 0.671 | 0.657 | 0.626 | 0.564 | 0.63 | 0.666 | 1.06 | 0.934 | 0.837 | 0.905 | 1.03 | 0.994 | 0.771 | 0.797 | 0.566 |
| NCI-H1734 | 0.728 | 0.807 | 0.795 | 0.791 | 0.603 | 0.355 | 0.338 | 0.379 | 0.355 | 0.683 | 0.649 | 0.504 | 0.528 | 0.464 | 0.805 | 0.816 | 0.765 | 0.654 |
| NCI-H1755 | 0.993 | 0.995 | 0.913 | 0.998 | 0.95 | 0.477 | 0.458 | 0.474 | 0.476 | 0.863 | 0.939 | 0.8 | 0.777 | 0.728 | 1.02 | 0.972 | 0.926 | 0.809 |
